Measurements taken from patent publication EP4703357A1, “TRIAZOLYL-CONTAINING COMPOUNDS” (Chia Tai Tianqing Pharmaceutical Group Co., Ltd., priority 2023, dated 2024).
Read-outs that look alike come from different tables or passages of the source.

What was measured:
[1] = test system: OCI-LY10 cells; test: Inhibitory activity on OCI-LY10 cell proliferation (CCK-8); type: cell-based; details: Homo sapiens, 72 h incubation
Description: (§1) OCI-LY10 cells in a good growth state were collected into a centrifuge tube, adjusted to a cell density of 9 × 10^4 cells/mL, and seeded in a 96-well plate (100 µL/well). The cells were incubated overnight in a cell incubator. Compounds were added using a nanoliter pipettor such that the final concentrations of the compounds were 1000 nM-0.46 nM (the addition was performed in duplicate). Meanwhile, a control was set. After another 72 h of incubation in the cell incubator, the assay reagent CCK-8 (manufacturer: Dojindo Laboratories, Beijing; 10 µL/well) was added. After 2 h of incubation in the cell incubator, absorbance was measured at 450 nm on an Envision microplate reader. A four-parameter analysis was performed, a dose-response curve was fit, and IC50 was calculated.

[2] = test system: Jurkat cells; test: Inhibitory activity on Jurkat cell proliferation (CCK-8); type: cell-based; details: Homo sapiens, 72 h incubation
Description: as §1, with “Jurkat cells” for “OCI-LY10 cells”, “of 5” for “of 9”

[3] = In vitro liver microsomal stability, mouse; type: in vitro ADME; details: mouse liver microsome 0.5 mg/mL, NADPH, 37 °C, 1 h
Description: (§2) Liver microsome incubation samples were prepared by mixing a PBS buffer (pH = 7.4), a liver microsome solution (0.5 mg/mL), a test compound, and an NADPH + MgCl2 solution, and incubated at 37 °C and 300 rpm for 1 h. Zero-hour samples were prepared by mixing a PBS buffer (pH = 7.4), a liver microsome solution (0.5 mg/mL), and a test compound. An acetonitrile solution containing an internal standard was added to the samples, and supernatants were prepared by protein precipitation, diluted, and then assayed by LC/MS/MS. Table 17. In vitro metabolic stability of related compounds in liver microsomes of various species

[4] = In vitro liver microsomal stability, human; type: in vitro ADME; details: human liver microsome 0.5 mg/mL, NADPH, 37 °C, 1 h
Description: as §2

[5] = Mouse pharmacokinetics; type: in vivo; details: ICR, plasma, po, 3 mg/kg, Mice administered intragastrically 3 mpk; for AUC(0-t): read-out: AUC (0-24)
Description: ICR mice weighing 18-22 g were randomized into groups of 9 mice per group after 3-5 days of acclimatization and then administered intragastrically at a dose of 3 mg/kg.
Plasma samples to be tested were prepared by taking blood from the orbit at time points of 15 min, 30 min, 1 h, 2 h, 4 h, 6 h, 8 h, 10 h, and 24 h.
20 µL of each plasma sample to be tested and a standard curve sample were taken, and an acetonitrile solution containing an internal standard was added. A supernatant was obtained by protein precipitation, diluted, and then assayed by LC/MS/MS.
Pharmacokinetic parameters were fitted using a non-compartmental model.

[6] = Mouse pharmacokinetics; type: in vivo, ICR mice; details: ICR, plasma; for AUC(0-t): read-out: AUC (0-24)
[7] = 1 mg/kg, Mice administered by single intravenous injection 1 mpk
[8] = po, 3 mg/kg, Mice administered intragastrically 3 mpk

Row | IC50 [1] | IC50 [2] | Mouse liver microsome Residuals at 60 min (%) [3] | Human liver microsome Residuals at 60 min (%) [4] | other results | Structure (SMILES)
1 | ≤ 0.04 µM | ≤ 0.02 µM | 90.60% | 88.75% |  | NC(=O)/C(=C/n1cnc(-c2cc(C3CC3)nc(C(F)(F)F)c2)n1)c1cnc(NCC(F)(F)F)nc1 [Compound 16]
2 | ≤ 0.04 µM | ≤ 0.02 µM | 89.94% | 98.75% |  | N#Cc1cncc(/C(=C\n2cnc(-c3cc(C4CC4)nc(C(F)(F)F)c3)n2)C(N)=O)c1 [Compound 30]
3 | ≤ 0.04 µM | ≤ 0.02 µM | 83.14% | 80.48% |  | NC(=O)/C(=C/n1cnc(-c2cc(C3CC3)nc(C(F)(F)F)c2)n1)c1cnc(NCC(F)F)nc1 [Compound 14]
4 | ≤ 0.04 µM | ≤ 0.02 µM | 97.97% | 101.38% |  | NC(=O)C(=Cn1cnc(-c2cc(C(F)(F)F)nc(C(F)(F)F)c2)n1)c1cncnc1 [Compound 1]
5 | ≤ 0.04 µM | ≤ 0.02 µM |  |  |  | NC(=O)/C(=C/n1cnc(-c2cc(C3CC3)nc(C(F)(F)F)c2)n1)c1ccc(NCC(F)(F)F)nc1 [Compound 40]
6 | ≤ 0.04 µM | ≤ 0.02 µM | 93.99% | 95.75% |  | N#Cc1cncc(/C(=C\n2cnc(-c3cc(C(F)(F)F)nc(C(F)(F)F)c3)n2)C(N)=O)c1 [Compound 10]
7 | ≤ 0.04 µM | ≤ 0.02 µM | 99.03% | 97.64% |  | C[C@@H](Nc1ncc(/C(=C\n2cnc(-c3cc(C(F)(F)F)nc(C(F)(F)F)c3)n2)C(N)=O)cn1)C(F)(F)F [Compound 5]
8 | ≤ 0.04 µM | ≤ 0.02 µM |  |  |  | NC(=O)/C(=C/n1cnc(-c2cc(C(F)(F)F)nc(C(F)(F)F)c2)n1)c1ccc(NCC(F)(F)F)nc1 [Compound 46]
9 | ≤ 0.04 µM | ≤ 0.02 µM | 87.82% | 92.23% | Cmax [5]: 0.483 µg/mL; Tmax [5]: 3 h; half-life [5]: 2.57 h; AUC(0-t) [5]: 2.73 µg·h/mL; AUC(0-inf) [6, 7]: 0.879 µg·h/mL; clearance [6, 7]: 1.14 L/h/kg; half-life [6, 7]: 1.26 h; AUC(0-t) [6, 7]: 0.874 µg·h/mL; AUC(0-inf) [6, 8]: 2.73 µg·h/mL | NC(=O)/C(=C/n1cnc(-c2cc(C(F)(F)F)nc(C(F)(F)F)c2)n1)c1cnc(NCC(F)F)nc1 [2(2-A)]
10 | ≤ 0.04 µM | ≤ 0.02 µM | 95.11% | 93.92% |  | C[C@@H](Nc1ncc(/C(=C\n2cnc(-c3cc(C4CC4)nc(C(F)(F)F)c3)n2)C(N)=O)cn1)C(F)(F)F [Compound 17]
11 | ≤ 0.04 µM | ≤ 0.02 µM | 93.27% | 100.33% |  | NC(=O)/C(=C/n1cnc(-c2cc(C(F)(F)F)nc(C(F)(F)F)c2)n1)c1cnc(NCC(F)(F)F)nc1 [Compound 4]
12 | ≤ 0.04 µM | ≤ 0.02 µM |  |  |  | NC(=O)/C(=C/n1cnc(-c2cc(C3CC3)nc(C(F)(F)F)c2)n1)c1cccc(F)n1 [Compound 37]
13 | ≤ 0.04 µM | ≤ 0.02 µM |  |  |  | NC(=O)/C(=C/n1cnc(-c2cc(C3CC3)nc(C(F)(F)F)c2)n1)c1ccc2ncccc2c1 [Compound 57]
14 | ≤ 0.04 µM | ≤ 0.02 µM |  |  |  | NC(=O)/C(=C/n1cnc(-c2cc(C(F)(F)F)nc(C(F)(F)F)c2)n1)c1ccc(C(F)(F)F)nc1 [Compound 53]
15 | ≤ 0.04 µM | ≤ 0.02 µM | 83.25% | 102.40% | Cmax [5]: 0.874 µg/mL; Tmax [5]: 1 h; half-life [5]: 2.55 h; AUC(0-t) [5]: 3.48 µg·h/mL; AUC(0-inf) [6, 7]: 1.04 µg·h/mL; clearance [6, 7]: 0.958 L/h/kg; half-life [6, 7]: 1.41 h; AUC(0-t) [6, 7]: 1.04 µg·h/mL; AUC(0-inf) [6, 8]: 3.8 µg·h/mL | Cc1ccc(/C(=C\n2cnc(-c3cc(C4CC4)nc(C(F)(F)F)c3)n2)C(N)=O)cn1 [38(38-A)]
16 | ≤ 0.04 µM | ≤ 0.02 µM |  |  |  | NC(=O)/C(=C/n1cnc(-c2cc(C3CC3)nc(C(F)(F)F)c2)n1)c1ccncc1 [Compound 43]
17 | ≤ 0.04 µM | ≤ 0.02 µM |  |  |  | NC(=O)/C(=C/n1cnc(-c2cc(C3CC3)nc(C(F)(F)F)c2)n1)c1ccc(C(F)(F)F)nc1 [Compound 60]
18 | ≤ 0.04 µM | ≤ 0.02 µM | 91.15% | 93.23% |  | NC(=O)/C(=C/n1cnc(-c2cc(C3CC3)nc(C(F)(F)F)c2)n1)c1cncnc1 [Compound 13]
19 | ≤ 0.04 µM | ≤ 0.02 µM | 89.18% | 106.91% |  | NC(=O)/C(=C/n1cnc(-c2cc(C3CC3)nc(C(F)(F)F)c2)n1)c1ccc(F)nc1 [Compound 39]
20 | ≤ 0.04 µM | ≤ 0.02 µM | 90.27% | 96.64% |  | NC(=O)/C(=C/n1cnc(-c2cc(C3CC3)nc(C(F)(F)F)c2)n1)c1cnc2ccccc2c1 [Compound 26]
21 | ≤ 0.04 µM | ≤ 0.02 µM |  |  |  | NC(=O)/C(=C/n1cnc(-c2cc(C(F)(F)F)nc(C(F)(F)F)c2)n1)c1ccc(NCC(F)F)nc1 [Compound 54]
22 | ≤ 0.04 µM | ≤ 0.02 µM | 98.21% | 104.79% |  | NC(=O)/C(=C/n1cnc(-c2cc(C3CC3)nc(C(F)(F)F)c2)n1)c1cnc2cccnc2c1 [Compound 33]
23 | ≤ 0.04 µM | ≤ 0.02 µM |  |  |  | NC(=O)/C(=C/n1cnc(-c2cc(C3CC3)nc(C(F)(F)F)c2)n1)c1ccc2cccnc2c1 [59(59-A)]
24 | ≤ 0.04 µM | ≤ 0.02 µM |  |  |  | NC(=O)/C(=C/n1cnc(-c2cc(C3CC3)nc(C(F)(F)F)c2)n1)c1ccc(NCC(F)F)nc1 [Compound 41]
25 | ≤ 0.04 µM | ≤ 0.02 µM | 95.08% | 100.32% |  | NC(=O)/C(=C/n1cnc(-c2cc(C3CC3)nc(C(F)(F)F)c2)n1)c1cccnc1F [Compound 32]
26 | ≤ 0.04 µM | ≤ 0.02 µM |  |  |  | NC(=O)/C(=C/n1cnc(-c2cc(C3CC3)nc(C(F)(F)F)c2)n1)c1ccnc(F)c1 [Compound 36]
